The text below walks through data of ChEMBL document CHEMBL2311503, “Synthesis and anti-angiogenic activity of benzothiazole, benzimidazole containing phthalimide derivatives” (Bioorg Med Chem Lett, 2013).

For the experiment, the species on record is Gallus gallus. Briefly: Antiangiogenic activity in chicken embryo chorioallantoic membrane assessed as inhibition of growth of new vessels proximity at 10 uM after 6 hrs by CAM assay. It is filed as functional, tissue-based.

SMILES strings stand for the structures. Active and inactive are the calls of the source. The calls are words filed in the database; no cut-off is given here.

With `Cc1ccc2c(c1)C(=O)N(c1nc3ccccc3s1)C2=O`, the inhibition result was “Active”. Take `O=C1c2ccccc2C(=O)N1c1ccc2ncsc2c1`: the inhibition entry was “Active”. In the case of `O=C1c2ccccc2C(=O)N1c1nc2ccccc2s1`, the inhibition entry is “Active”.

With `O=C1c2ccccc2C(=O)N1c1nc2ccccc2[nH]1`, the inhibition result was “Active”.

As to `O=C1c2ccccc2C(=O)N1c1cccc2nsnc12`, the inhibition result is “Active”.
